| SMILES | melting point [°C] |
| --- | --- |
| CCN(CC)C(C)CN(c1c(C)cccc1C)S(C)(=O)=O (configuration not stated) | 58 to 60 |
| O=C(O)c1cncn1C(c1ccccc1)c1ccccc1 | 216 |
| CC(C)C[C@H](NC(=O)OC(C)(C)C)[C@@H](O)C[C@H](c1ccccc1)C(C)C | 95 to 96 |
| COc1c(Cl)cc(Cl)c(OC)c1C(=O)O | 98 to 100 |
| COC(=O)C1CSC=CCCCC(=O)N1 (configuration not stated) | 160 to 161 |
| Cc1cc(C)nc(NC(=O)NS(=O)(=O)c2sccc2-c2ccon2)n1 | 172 to 173 |
| COc1ccc2c(c1)C(=NO)c1c-2c(N2CCNCC2)nc2ccccc12 | 146 to 147 |
| Cc1[nH]ncc1C(=O)O | 223 |
| Cc1c(C)c(N2CCN(c3ccn(C)n3)CC2)c(C)c2c1OC(C)(C)C2 | 147 to 149 |
| COc1ccccc1COc1ccc(S(=O)(=O)c2ccc(C)nc2Nc2ccc(S(C)(=O)=O)cc2Cl)cc1 | 100 to 102 |
| Cc1ccc(C(=O)O)c(OC(=O)C=Cc2ccccc2)c1 | 156 to 157 |
| CC(C)OC(=O)COc1ccc(C(=O)CN2CCN(c3ccncc3)CC2)cc1 | 64 to 66 |
| Cc1occc(=O)c1OC(=O)c1ccccc1 | 106 to 110 |
| CNC(=O)CC=C(CC(C)C)C(=O)OC(C)(C)C | 35 to 36 |
| O=C(O)c1cc(C(=O)O)c2c(c1)C(C(=O)O)CC(c1ccccc1)N2 (configuration not stated) | 300 |
| CCCOc1nsc(N)c1C#N | 122 to 125 |
| CC(C)(O)C(=O)CC(=O)c1ccc(C(=O)CC(=O)C(C)(C)O)cc1 | 276 to 278 |
| CCC(=O)Nc1cccc(O)c1 | 181 to 182 |
| CCNC(C)CN1CCc2c(c(=O)oc3ccccc23)C1 (configuration not stated) | 104 to 105 |

| SMILES | melting point [°C] |
| --- | --- |
| CCn1c(=O)c2c(N3CCN(C)CC3)cc(Cl)cc2n(Cc2ccccc2)c1=O | 155 to 159 |
| CCOC(=O)c1ccc(C(=O)CBr)cc1 | 67 to 68.5 |
| CCCCCCCCCCC(O)C(=O)N[C@@H](CCCC)CCC(=O)O (some centres not stated) | 53 to 55 |
| CCSc1oc2ccccc2c(=S)c1C#N | 175 to 179 |
| CC(C)N(Cc1c(-c2ccccc2)sc(N)c1C(=O)c1ccc(Cl)cc1)C(C)C | 185 to 187 |
| COc1ccc(N2CCN(c3ccc(NC(=O)NCC(OC)OC)cc3)CC2)cc1 | 225 |
| O=C(N[C@H]1C[C@H](C(=O)O)Nc2cc(Cl)cc(Cl)c21)C1CCCCC1 (relative stereo) | 190 to 195 |
| CNC(C)C(=O)Nc1cccc2c1C(=O)c1c(NC(=O)C(C)NC)cccc1C2=O (configuration not stated) | 233 to 234 |
| Cc1cc2oc(-c3ccccn3)nc2cc1N=C=S | 192 to 194 |
| Fc1ccccc1N1CCN(Cc2cn3cc(Cl)ccc3n2)CC1 | 107 to 108 |
| CC(CC(C)Oc1ccc(-c2ccc(C#N)cc2)cc1)Oc1ccc(-c2ccc(C#N)cc2)cc1 (configuration not stated) | 140 |
| Cc1cc(-c2cnn3c(C(F)(F)F)cc(-c4ccc(C(F)(F)F)c(C(F)(F)F)c4)nc23)ccn1 | 223 |
| Fc1cccc(CC[C@H]2CN(Cc3ccccc3)CCN2Cc2ccccc2)c1 | 69 to 71 |
| Cc1cc2c(-c3ccccc3Cl)c(NC(=O)Nc3cccc(C(F)(F)F)c3)c(=O)n(C)c2cc1C | 175 to 176 |
| CCOC(=O)c1ncn2c1CN(Cc1ccc(OC)cc1OC)C(=O)c1cc(OC)ccc1-2 | 204 |
| C=C(C)C=CCC(C)C1CCC2(C)C1(C)CCC1C3(C)CCC(OC(C)=O)CC3CCC12C (configuration not stated) | 120 to 125 |
| CC1CC(=O)NN=C1c1cc2cc(O)c(O)cc2s1 (configuration not stated) | > 270 |
| CCCCC(NC(=O)C1CC1(C)C)C(=O)OC(C)(C)C (racemic) | 52 to 65 |
| CN1C[C@H](CN2CCC(O)(c3ccc(Cl)cc3)CC2)C=C2c3cccc4c3c(cn4C)C[C@H]21 | 101 to 107 |

| SMILES | melting point [°C] |
| --- | --- |
| CN(NC(=O)OC(C)(C)C)C(=O)OCc1ccccc1 | 60 to 65 |
| Cc1sc(-c2cc([N+](=O)[O-])cc([N+](=O)[O-])c2)nc1O | 247 to 248 |
| COc1ccccc1N1CCc2c(Cl)nc3c(OC)cccc3c21 | 99 to 101 |
| CC(C)(O)CCCCCc1cccc(CCc2cc(O)cc(O)c2)c1 | 102 to 103 |
| CCN(CC)C(=O)COc1cc(N)c(Cl)cc1C(=O)O | 186 to 188 |
| COC(=O)C(Br)(C1=NCCCS1)[N+](=O)[O-] (configuration not stated) | 88.5 to 93 |
| C#CCNc1nc(N(C2CC(C)(C)N(O)C(C)(C)C2)C2CC(C)(C)N(O)C(C)(C)C2)nc(N(C2CC(C)(C)N(O)C(C)(C)C2)C2CC(C)(C)N(O)C(C)(C)C2)n1 | 249 to 252 |
| CCCCN1CCCC1=NC(=O)Nc1cccc(Cl)c1 | 94 to 96 |
| Fc1nc(/C=C/c2ccccc2)cn1C(c1ccccc1)(c1ccccc1)c1ccccc1 | 167 to 170 |
| CC(CC(=O)OCc1ccccc1)NC(=O)CCNC(=O)OC(C)(C)C (configuration not stated) | 70 to 72 |
| Cc1ccc(S(=O)(=O)NC(=O)c2cccc(OCc3csc(-c4ccccc4)n3)c2)cc1 | 170 to 172 |
| CC(=O)Nc1nc2cnccc2s1 | > 212 |
| Oc1ccc2c(c1)CCCC(c1ccccc1)=C2c1ccc(OCCCCCSCCCC(F)(F)F)cc1 | 168 |
| CC(C)Nc1cccnc1N1CCN(C(=O)c2ccc(C(=O)N[C@H](CO)C(C)C)cc2)CC1 | 82 to 83 |
| COc1ccc(C2=CCCS(=O)C2)cc1OC1CCCC1 (configuration not stated) | 92 to 93 |
| COc1ccc(-c2[nH]nc3c2C(=O)c2c(NC(=O)NNC(=O)c4ccccc4OC)cccc2-3)cc1 | 269 |
| COc1ccc2c(=O)cc(CS(C)=O)oc2c1 (configuration not stated) | 157 to 159 |
| OC1CCCC(c2ccccc2)O1 (configuration not stated) | 64.5 to 71 |

Now from value to compound:

| melting point [°C] | SMILES |
| --- | --- |
| 221 | O=S(=O)(N[C@H]1CC[C@H](CCN2CCN(c3nccc4c3CCO4)CC2)CC1)c1ccc(F)cc1 |
| 196 | O=C(c1ccc(O)cc1)c1ccc([N+](=O)[O-])cc1 |
| 166 to 168 | O=c1cc2c(nn1-c1ccc(Cl)cc1)-c1cccc(Cl)c1SCC2 |
| 152 | CCN(C)c1nc2sc3c(NCc4ccccn4)ncnc3c2c2c1CCC(C)(C)C2 |
| 115 to 117 | NCCSC[C@H]1O[C@@H](n2cnc3c(NCc4ccc([N+](=O)[O-])cc4)ncnc32)[C@H](O)[C@@H]1O |
| 197 to 200 | O=C(Nc1ccccc1)N1C(=O)[C@H](O)[C@@H]1c1ccccc1 |
| 165 | CCOC(=O)C(CCc1ccccc1)NC1CSC(c2ccsc2)CN(CC(=O)O)C1=O (configuration not stated) |
| 93 to 95 | CSc1cc(-c2ccccc2)ccc1C1=NC(C)(C)CO1 |
| 208 to 209 | CC(C)n1nc(-c2c(-c3ccccc3)nn3ccc(OCC(=O)Nc4ccccc4)cc23)ccc1=O |
| 128 to 133 | CC(=O)c1cccc(-c2ncccc2OC2SCC(O)C(O)C2O)c1 (configuration not stated) |
| 220 to 222 | O=C(NCCCCN1CCC(c2ccc3c(c2O)CCCC3)CC1)c1ccc(-c2ccc(C(F)(F)F)cc2)cc1 |
| 165 | Cc1cc(C)c(=O)n(C(C(=O)O)c2ccc3c(c2)OCO3)n1 (configuration not stated) |
| 192 | C=CCNc1nc(N)nc(-c2ccccc2)c1-c1ccc(=O)n(C(C)C)n1 |
| 178 to 179 | CCc1ccc(-c2ccc(C(=O)Nc3ccc4cc(CN5CCCC5)cnc4c3C)c(F)c2)cc1 |
| 69 to 70 | C#CCOC(C(=O)O)c1ccc(Cl)cc1 (configuration not stated) |
| 103 to 104 | CCOC(=O)c1cc(-c2ccccc2)n(-c2cccc(C)c2)c1C |
| 118 to 119 | Cc1cc2c(c(Sc3ccc(Cl)cc3)n1)C(=O)N(CC1Cc3c(sc(N)c3C(=O)OC(C)(C)C)CO1)C2=O (configuration not stated) |
| 55 to 56 | C[Si](C)(C)OC1(C#N)CCC(C(=O)NCc2cccc3ccccc23)c2ccccc21 (configuration not stated) |
| 180 | CC1(C)c2ccccc2N2Cc3cc([N+](=O)[O-])ccc3OC21C (configuration not stated) |
| 109 to 111 | C=C(C)C(=O)OCCCCCCN(C)c1ccc(C=Cc2ccc([N+](=O)[O-])cc2)cc1 |
| 224 | CC(C)(C(O)c1ccc(Br)cc1)n1ncn(-c2ccc(N3CCN(c4ccc(O)cc4)CC3)cc2)c1=O (configuration not stated) |

| melting point [°C] | SMILES |
| --- | --- |
| 258 to 260 | O=c1[nH]c2ncc(-c3ccc(-c4n[nH]c(CO)n4)cc3)nc2n1CC1CCOCC1 |
| 125 to 128 | CCOC(=O)C(Cc1ccc(S)cc1)(NC(C)=O)C(=O)OCC |
| 70 to 72 | CCOC(=O)c1cnn(-c2ccc(F)cc2)c1Cl |
| 162 to 164 | O=C(O)c1ccc(OC2=C3N=C4CCCCC4=C3C(Cc3ccc(Cl)cc3)C=C2)o1 (configuration not stated) |
| > 300 | CC(=O)Nc1cccc2c1C(=O)c1c-2n[nH]c1-c1ccc(N2CCOCC2)cc1 |
| 47.4 to 50.1 | C=CC(=O)OCCOc1ccc(-c2cccc(F)c2F)cc1 |
| 110 to 113 | Cc1ccccc1C(C)Oc1cc(OCc2ccccc2)ccc1C(=O)O (configuration not stated) |
| 98 to 100 | CCOc1cc(NC(=O)C2=C(C(=O)N(CC)CC)CCCC2)ccc1Cl |
| 123 to 125 | CCC(=CC(CNC(=O)Cc1cccnc1)=NO)C(C)[N+](=O)[O-] (configuration not stated) |
| 146 to 148 | Cc1ccc(-n2nc3c(cc2=O)CCc2sc(C(C)O)cc2-3)cc1 (configuration not stated) |
| 99 to 101 | CC(N1CCN(c2nnn(Cc3ccc(C(C)(C)C)cc3)n2)CC1)C(O)(Cn1cncn1)c1ccc(F)cc1F (configuration not stated) |
| 148 to 150 | CC(=O)NCC1CN(c2ccc(N3CCC(=C(C)C#N)C(F)C3)c(F)c2)C(=O)O1 (configuration not stated) |
| 88 to 90 | CCOc1ccc(-c2ccc(Cl)cc2)cc1C=O |
| 263 to 265 | O=C(NCc1ccnc(Cl)c1)c1[nH]c2ccc(Cl)cc2c1S(=O)(=O)c1ccccc1 |
| 154 to 155 | N#Cc1ccc(-c2cc(C#N)cc(Cn3cncn3)c2)cc1 |
| 202 to 205 | O=C(NC1CCOCC1)c1ccc(-c2ccc3nnn(Cc4ccc5ncccc5c4)c3n2)cc1 |
| 53 to 54 | N#CCCSc1ccc(Cl)cc1 |
| 96.1 to 97.1 | CC(C)c1onc(-c2c(Cl)cccc2Cl)c1COc1ccc(N(C)Cc2ccc(C(=O)O)cc2)c(C(F)(F)F)n1 |
| 166 to 168 | N#Cc1c(Cl)cccc1CSCCNC(=O)c1c(Cl)cccc1Cl |
| 142 to 144 | O=C(O)CC(CCc1ccc(O)cc1)CC(=O)O |
